Test [1] addresses T1, human vasopressin V1a receptor (Homo sapiens, UniProt P37288). As to the kind of experiment: Functional assay on human vasopressin V1a receptor expressing cell line (intracellular Ca2+ fluorescence). The format is cell-based. The settings on record: 1321N1 cells, (Arg8)-vasopressin at EC80; read-out: IC50 (nM) on hV1a cell line.
Test [2] has as its target T1, human vasopressin V1a receptor. As to the kind of experiment: Human vasopressin V1a receptor binding assay. The settings on record: 1321N1 cell membranes, [3H]vasopressin; read-out: Ki (nM) on hV1a cell line. The method, boiled down: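 Ki values come from IC50 via Cheng-Prusoff (KD from prior Scatchard), averaged over at least two independent runs. Human V1a membranes were incubated with radioligand 60 minutes at 27° C., bound ligand collected by filtration; (Arg^8)-vasopressin at 1.2×10^−6 M defined non-specific binding.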

T1 sequence (P37288 whole entry): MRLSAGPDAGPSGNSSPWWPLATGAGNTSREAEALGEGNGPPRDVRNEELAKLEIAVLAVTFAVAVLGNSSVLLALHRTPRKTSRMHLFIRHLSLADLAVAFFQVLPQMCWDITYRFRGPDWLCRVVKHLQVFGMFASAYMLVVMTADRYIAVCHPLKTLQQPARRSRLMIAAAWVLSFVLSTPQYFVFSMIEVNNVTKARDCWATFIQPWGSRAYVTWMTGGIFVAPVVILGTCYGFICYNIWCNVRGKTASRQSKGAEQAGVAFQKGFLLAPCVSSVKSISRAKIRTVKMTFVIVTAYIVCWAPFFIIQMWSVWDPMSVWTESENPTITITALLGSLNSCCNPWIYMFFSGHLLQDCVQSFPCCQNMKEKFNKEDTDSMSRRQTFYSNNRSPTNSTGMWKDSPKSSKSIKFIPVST

A word on the IC50: it is the concentration that inhibits the measured activity by half. Usually Ki stands for the equilibrium dissociation constant of an inhibitor or competing ligand from its target. Consider `N#CCC(=O)OC1Cc2cc(Cl)ccc2-n2c(nnc2[C@H]2CC[C@H](Oc3ccccn3)CC2)C1` (stereo partly drawn) [Example 215, 8-chloro-1-[trans-4-pyridin-2-yloxy)cyclohexyl]-5,6-dihydro-4H-[1,2,4]triazolo[4,3-a][1]benzazepin-5-yl cyanoacetate], for which the IC50 in test [1] was 3.7 nM. Besides, the Ki in test [2] came out at 0.2 nM.

`CN(C)CC(=O)OC1Cc2cc(Cl)ccc2-n2c(nnc2[C@H]2CC[C@H](Oc3ccccn3)CC2)C1` (stereo partly drawn) [Example 216, 8-chloro-1-[trans-4-(pyridin-2-yloxy)cyclohexyl]-5,6-dihydro-4H-[1,2,4]triazolo[4,3-a][1]benzazepin-5-yl N,N-dimethylglycinate]: the 50% inhibitory concentration (IC50) in test [1] worked out at 1.5 nM. For the same molecule, in test [2], the Ki came to 0.7 nM.

In the case of `O=C(N[C@@H]1Cc2cc(Cl)ccc2-n2c(nnc2[C@H]2CC[C@H](Oc3ccccn3)CC2)C1)C(F)(F)F` [Example 217, N-{(5R)-8-chloro-1-[trans-4-(pyridin-2-yloxy)cyclohexyl]-5,6-dihydro-4H-[1,2,4]triazolo[4,3-a][1]benzazepin-5-yl}-2,2,2-trifluoroacetamide], the IC50 in test [1] is 1.4 nM. For the same molecule, in test [2], the Ki amounted to 0.3 nM.

For the molecule `COC1Cc2cc(Cl)ccc2-n2c(nnc2[C@H]2CC[C@@H](N3CCCC3=O)CC2)C1` (stereo partly drawn) [Example 218, 1-[cis-4-(8-chloro-5-methoxy-5,6-dihydro-H-[1,2,4]triazolo[4,3-a][1]benzazepin-1-yl)cyclohexyl]pyrrolidin-2-one], the IC50 in test [1] was 1250 nM. Besides, in test [2], the Ki is 97 nM.

Turning to `COC1Cc2cc(Cl)ccc2-n2c(nnc2[C@H]2CC[C@H](N3CCCC3=O)CC2)C1` (stereo partly drawn) [Example 219, 1-[trans-4-(8-chloro-5-methoxy-5,6-dihydro-4H-[1,2,4]triazolo[4,3-a][1]benzazepin-1-yl)cyclohexyl]pyrrolidin-2-one], the IC50 in test [1] was 22 nM. Further, in test [2], the Ki worked out at 0.2 nM.

As to `O=C(N[C@@H]1Cc2cc(Cl)ccc2-n2c(nnc2[C@H]2CC[C@H](Oc3ccccn3)CC2)C1)C1CC(F)(F)C1` [Example 220, N-{(5R)-8-chloro-1-[trans-4-(pyridin-2-yloxy)cyclohexyl]-5,6-dihydro-4H-[1,2,4]triazolo[4,3-a][1]benzazepin-5-yl}-3,3-difluorocyclobutanecarboxamide], in test [1], the IC50 was 2.6 nM. Also, the Ki in test [2] came to 0.4 nM.

For `O=C(N[C@@H]1Cc2cc(Cl)ccc2-n2c(nnc2[C@H]2CC[C@H](Oc3ccccn3)CC2)C1)C1CCC(F)(F)CC1` [Example 221, N-{(5R)-8-chloro-1-[trans-4-(pyridin-2-yloxy)cyclohexyl]-5,6-dihydro-4H-[1,2,4]triazolo[4,3-a][1]benzazepin-5-yl}-4,4-difluorocyclohexanecarboxamide], the IC50 in test [1] was determined as 9.8 nM. For the same molecule, in test [2], the Ki came to 0.9 nM.

For the molecule `COC1Cc2cc(Cl)ccc2-n2c(nnc2[C@H]2CC[C@](OC)(C(F)(F)F)CC2)C1` (stereo partly drawn) [Example 222, 8-chloro-5-methoxy-1-[cis-4-methoxy-4-(trifluoromethyl)cyclohexyl]-5,6-dihydro-4H-[1,2,4]triazolo[4,3-a][1]benzazepine], the IC50 in test [1] came to 40 nM. Further, the inhibition constant Ki in test [2] was found to be 5.8 nM.

In the case of `COC1Cc2cc(Cl)ccc2-n2c(nnc2[C@H]2CC[C@@](OC)(C(F)(F)F)CC2)C1` (stereo partly drawn) [Example 223, 8-chloro-5-methoxy-1-[trans-4-methoxy-4-(trifluoromethyl)cyclohexyl]-5,6-dihydro-4H-[1,2,4]triazolo[4,3-a][1]benzazepine], in test [1], the IC50 came out at 8.1 nM. Moreover, the Ki in test [2] is 1.6 nM.

On to `FC(F)(F)CN[C@H]1Cc2cc(Cl)ccc2-n2c(nnc2[C@H]2CC[C@H](Oc3ccccn3)CC2)C1` [Example 224, (5S)-8-chloro-1-[trans-4-(pyridin-2-yloxy)cyclohexyl]-N-(2,2,2-trifluoroethyl)-5,6-dihydro-4H-[1,2,4]triazolo[4,3-a][1]benzazepin-5-amine], for which the IC50 in test [1] was 3.6 nM. Besides, in test [2], the Ki came to 0.7 nM.

With `CC1(C(=O)N[C@H]2Cc3cc(Cl)ccc3-n3c(nnc3[C@H]3CC[C@H](Oc4ccccn4)CC3)C2)COC1` [Example 225], the half-maximal inhibitory concentration (IC50) in test [1] came to 854 nM. Besides, the Ki in test [2] turned out to be 48 nM.

In the case of `CC1(C(=O)N[C@@H]2Cc3cc(Cl)ccc3-n3c(nnc3[C@H]3CC[C@H](Oc4ccccn4)CC3)C2)COC1` [Example 226, N-{(5R)-8-chloro-1-[trans-4-(pyridin-2-yloxy)cyclohexyl]-5,6-dihydro-4H-[1,2,4]triazolo[4,3-a][1]benzazepin-5-yl}-3-methyloxetan-3-carboxamide], the IC50 in test [1] turned out to be 4.2 nM. In addition, in test [2], the Ki stood at 0.5 nM.

Turning to `COc1ccc(CN[C@H]2CC[C@H](c3nnc4n3-c3ccc(Cl)cc3CC3(C4)OCCO3)CC2)cc1` [Example 227, Trans-4-(8′-chloro-4′H,6′H-spiro[1,3-dioxolane-2,5′-[1,2,4]triazolo[4,3-a][1]benzazepin]-1′-yl)-N-(4-methoxybenzyl)cyclohexanamine], the IC50 in test [1] stood at 51 nM. The inhibition constant (Ki) in test [2] was determined as 1 nM.

As for `CC(C)(C)OC(=O)NCCN[C@@H]1Cc2cc(Cl)ccc2-n2c(nnc2[C@H]2CC[C@H](Oc3ccccn3)CC2)C1` [Example 228, Tert-butyl [2-({(5R)-8-chloro-1-[trans-4-(pyridin-2-yloxy)cyclohexyl]-5,6-dihydro-4H-[1,2,4]triazolo[4,3-a][1]benzazepin-5-yl}amino)ethyl]carbamate], in test [1], the IC50 was determined as 6.1 nM. The Ki in test [2] amounted to 0.8 nM.

Turning to `CCO[C@]1(CC)CC[C@@H](c2nnc3n2-c2ccc(Cl)cc2CC2(C3)OCCO2)CC1` [Example 229, 8′-chloro-1′-(trans-4-ethoxy-4-ethylcyclohexyl)-4′H,6′H-spiro[1,3-dioxolane-2,5′-[1,2,4]triazolo[4,3-a][1]benzazepine]], the IC50 in test [1] was 2.1 nM. For the same molecule, in test [2], the Ki turned out to be 0.4 nM.

On to `COc1ccc(CN(C)[C@H]2CC[C@H](c3nnc4n3-c3ccc(Cl)cc3CC3(C4)OCCO3)CC2)cc1` [Example 230, Trans-4-(8′-chloro-4′H,6′H-spiro[1,3-dioxolane-2,5′-[1,2,4]triazolo[4,3-a][1]benzazepin]-1′-yl)-N-(4-methoxybenzyl)-N-methylcyclohexanamine], for which, in test [1], the IC50 is 12 nM. Moreover, in test [2], the Ki came to 0.7 nM.

Turning to `Clc1ccc2c(c1)CC1(Cc3nnc(C4CCN(Cc5cccnc5)C4)n3-2)OCCO1` (centres unmarked) [Example 231, 8′-chloro-1′-[1-(pyridin-3-ylmethyl)pyrrolidin-3-yl]-4′H,6′H-spiro[1,3-dioxolane-2,5′-[1,2,4]triazolo[4,3-a][1]benzazepine]], the IC50 in test [1] came out at 5.9 nM. Also, the inhibition constant Ki in test [2] was 1.1 nM.

For the molecule `COC1Cc2cc(Cl)ccc2-n2c(nnc2N2CCN(c3ccccn3)CC2)C1` (centres unmarked) [Example 232, 8-chloro-5-methoxy-1-[4-(pyridin-2-yl)piperazin-1-yl]-5,6-dihydro-4H-[1,2,4]triazolo[4,3-a][1]benzazepine], in test [1], the IC50 was found to be 9.2 nM. In addition, the Ki in test [2] is 1.3 nM.

On to `CC[C@]1(OC)CC[C@H](c2nnc3n2-c2ccc(Cl)cc2CC(N(C)C)C3)CC1` (stereo partly drawn) [Example 233, 8-chloro-1-(trans-4-ethyl-4-methoxycyclohexyl)-N,N-dimethyl-5,6-dihydro-4H-[1,2,4]triazolo[4,3-a][1]benzazepin-5-amine], for which the 50% inhibitory concentration (IC50) in test [1] stood at 53 nM. Further, the inhibitory constant (Ki) in test [2] is 6.9 nM.
